Assay results: patent US12344599B2, “Prodigiosin analogs and methods of use” (Institute For Cancer Research, priority 2016, dated 2025)
Read-outs that look alike come from different tables or passages of the source. * marks the point of attachment. Cbz = O=C(OCc1ccccc1)*; CH2F = FC*

Legend:
Assay type in all cases: cell-based, human
[1] = system: c-Myc and PUMA; test: Western blot of c-Myc, PUMA and p53 target genes; settings: HT29 cells
Protocol: (§1) After treatment, protein lysates were collected for Western blot analysis. A total of […] of protein was used for SDS-PAGE. After primary and secondary antibody incubations, the signal was detected by a chemiluminescence detection kit, imaged by Syngene (Imgen Technologies). Antibodies for PUMA (for IHC), p53 (Santa Cruz Biotechnology), caspase 8, cleaved caspase 8, caspase 9, caspase 3, cleavage PARP, eIF2α, p-eIF2α (Ser51), CHOP, ATF4, DR5, FOXO3a, p-FOXO3a (Ser253), NF-κB p65, p-NF-κB p65 (Ser536), c-Jun, p-c-Jun (Ser63), JNK, p-JNK (Thr183/Tyr185), PUMA (for WB), c-Myc, phosphor-S62-cMyc (Cell Signaling Technology), Noxa, p21 (Calbiochem), p73 (Bethyl laboratories Inc), Ran (BD Biosciences), […] (Sigma).
To test this hypothesis, two ERK1/2 inhibitors that act by different mechanisms were used. U0126 is an indirect ERK1/2 inhibitor. It inhibits MEK1 kinase and blocks the phosphorylation of ERK1/2. […] Consistent with a previous publication (Choi et al., Genes Dev, 2010, 24, 1236-1241), SCH772984 can inhibit ERK1/2 function after ERK1/2 is phosphorylated (FIG. 73), and the same is observed for PG3-Oc (FIG. 73).

[2] = system: γ-H2AX in HT29 and SW480 cells; test: γ-H2AX DNA damage marker, western blot and immunofluorescence staining
Protocol: as §1
A total of 5×10^4 cells were seeded in each well of 8-well chamber slides. After treatment, cells were fixed and permeabilized by methanol:acetone (1:1) for 20 minutes at −20° C. Fixed cells were blocked by 2% BSA for 1 hour, followed by primary antibody incubation for 1 hours and Cy3-conjuated secondary antibody incubation for 1 hour at room temperature. After washing, cells were stained with DAPI for 10 minutes at room temperature. Cells were mounted, and examined by fluorescence microscopy.
DNA damage induces the p53 pathway and leads to cell apoptosis. To study whether the p53 pathway restoration by compound PG3-Oc is due to DNA damage, the uptake and localization of PG3-Oc was investigated in cells. PG3-Oc and prodigiosin are red fluorescent compounds, and their localization in live cells can be monitored by fluorescence microscopy. PG3-Oc and prodigiosin rapidly entered cells within 2 hours of incubation and remained in the cytosol at the 8-hour time point in HT29 and SW480 cells (FIG. 46). […] Baldino, et al. reported that prodigiosin localized to the cytoplasm, but not within the nucleus, and no γ-H2AX signal was detected in A549 cancer cells (Baldino et al., Bioorg Med Chem Lett, 2006, 16, 701-704). […]

[3] = system: HT29 cells; test: Flow cytometry sub-G1 (PI staining) analysis; settings: HT29, 20 μM Z-VAD-FMK co-treated with 1 μM PG3-Oc, 48 hours
Protocol: • 1) Cell lines: HT29, SW480, DLD-1, HCT116, and p53-null HCT116 cells, H1975, MDA-MD-231, U251, FaDu, CAL-27, PANC-1, Aspc-1, and MRC5 were obtained from the ATCC and cultured as recommended. Cells were regularly authenticated by bioluminescence, growth, and morphologic observation. The cells were routinely examined for Mycoplasma and all cell lines underwent STR authentication. • 2) Western blotting: After treatment, protein lysates were collected for Western blot analysis. 15 μg of protein was used for SDS-PAGE. After primary and secondary antibody incubations, the signal was detected by chemiluminescent detection kit, imaged by Syngene (Imgen Technologies). Antibodies for Puma, FLIPL/S and p53 (Santa Cruz Biotechnology), cleaved caspase 8, caspase 9, caspase 3, cleavage PARP, eIF2α, p-eIF2α(Ser51), CHOP, ATF4, DR5, FOXO3a, p-FOXO3a(Ser253), NF-κB p65, p-NF-κB p65(Ser536), c-Jun, p-c-Jun(Ser63), JNK, p-JNK(Thr183/Tyr185) (Cell Signaling Technology), Noxa, p21 (Calbiochem), p73 (Bethyl laboratories Inc), Ran (BD Biosciences), […] (Sigma). • 3) Cell viability assay: Cells were seeded in 96-well plate (6×10^3 cells/well). Cells were treated with different concentrations of compounds or dimethyl sulfoxide (DMSO) control for 72 hours. The cell viability was assessed by CellTiterGlo bioluminescent cell proliferation assay (Promega), following the manufacturer's protocol. Bioluminescence imaging was measured using the IVIS imager. Percentage of cell viability (mean±SEM) at each dose was calculated against the respective DMSO control. The IC50 values were determined from the sigmoidal dose-response curves using GraphPad Prims4. • 4) Caspase activity assay: Cells were seeded in 96-well plate (1×10^4 cells/well). Cells were treated with different concentrations of compounds or DMSO control for 24 hours. The caspase 3/7 activity was assessed by Caspase-Glo® 3/7 Assay kit (Promega), following the manufacturer's protocol. Bioluminescence imaging was measured using the IVIS imager. Caspase activity was normalized to cell numbers and compared to those of DMSO treatment as control in each cell line. Data is reported as mean RLU+SEM (n=3). • 5) Colony formation assays: Five hundred cells were seeded per well on 6-well plates and treated with different concentrations of compounds for 24 hours, then, cells were cultured with drug-free complete medium for 2 weeks with fresh medium changed every 7 days. Cells were fixed with 10% formalin and stained with 0.05% crystal violet at the end of 2 weeks period of cell culture. • 6) Flow cytometry assay: • a) Cell Cycle Analysis: Propidium iodide (PI) staining and flow cytometry were used to determine the degree of cellular apoptosis. Cells were seeded at 3×10^5 cells/well in six-well plates. Cells were treated with PG3-Oc for 48 hours. Cells were harvested, fixed by 70% ethanol, and stained by propidium iodide, then flow cytometry was performed as previously described (Smithen et al., Org. Biomol. Chem., 2013, 11, 62-68). The percentage of hypodiploid cells (sub-G1) was used to quantify dead cells in apoptosis assays. • b) Early apoptosis detection: Cells were seeded at 3×10^5 cells/well in six-well plates. Cells were treated with PG3-Oc for 48 hours. […]

[4] = system: SW480, DLD1 and p53-null cell line HCT116; test: CellTiter-Glo luminescent cell viability assay (Example 1)
Protocol: SW480, DLD-1, DLD1-p73KD, HCT116, and p53-null HCT116, MRC5 and Wi38 cells were seeded at 5,000 cells per well on 96-well plates. […] Then, cells were mixed with an equal volume of CellTiter-Glo® reagents (Promega), following the manufacturer's protocol, and bioluminescence imaging was measured using the IVIS imager.

[5] = system: p53-target genes; test: Western blotting of p53-target genes (Example 1)
Protocol: After treatment, protein lysates were collected for Western blot analysis. Twenty-five micrograms of protein were used for SDS-PAGE. After primary and secondary antibody incubations, the signal was detected with a chemiluminescent detection kit, followed by autoradiography or Syngen. […] In FIG. 10, p53-null HCT116 cells were treated with P01 and P306, alone or in combination with SiCon or SiTAp73, in various concentrations for 6 hours, and tested for p73 (C.S.), p73 (Bethyl), P63-α, p53, DR5, Puma, P21, and Ran proteins.

Molecule: O=C(Nc1ccc2[nH]nc(-c3ccncc3)c2c1)[C@@H]1CCN(CC(=O)N2CCN(c3ccc(-c4ncccn4)cc3)CC2)C1 [SCH772984]
- effect on c-Myc and PUMA [1]: potently induced the downregulation of c-Myc and the upregulation of PUMA
- effect on p53 target genes DR5, p21 and Noxa [1]: did not induce DR5, shown mild upregulation of p21 and suppressed Noxa expression

Molecule: N#CC(=C(/N)Sc1ccccc1N)/C(C#N)=C(\N)Sc1ccccc1N [U0126]
- effect on c-Myc and PUMA [1]: potently induced the downregulation of c-Myc and the upregulation of PUMA

Molecule: CCCCCc1cc(/C=C2\N=C(c3ccc[nH]3)C=C2OC)[nH]c1C [prodigiosin, Prodigiosin]
- induction of 65-H2AX (DNA damage marker) / foci formation ([2]; HT29 and SW480, 8-hour treatment): did not induce

Molecule: CCc1c2c(nc3ccc(OC(=O)N4CCC(N5CCCCC5)CC4)cc13)-c1cc3c(c(=O)n1C2)COC(=O)[C@]3(O)CC [CPT-11, Irinotecan]
- induction of 65-H2AX (DNA damage marker) / foci formation [2]: significantly induced

Molecule: Cbz-Val-Ala-Asp-CH2F [reference compound]
- formation of a sub-G1 population induced by PG3-Oc [3]: completely blocked

Molecule: CCc1c(C)[nH]c(/C=C2\N=C(c3ccc[nH]3)C=C2OC)c1C [P301]
- induction of cell death ([4]; SW480, DLD1, p53-null HCT116): potently induced cell death
- IC50 values ([4]; SW480, DLD1, p53-null HCT116, 72 hours): within nanomolar range
- expression of p53-target genes [5]: induced the expression of p53-target genes via p73
